One series has as its system E. Coli NIHJ-JC2. Kind of series: MIC (Table 4). In kind it is cell-based. As to conditions: 10^8 cells/ml; unit assumed. From the text:
(§1) | MIC Value (10^8 cells/ml)

Another series deals with Staph. aureus 0003. Kind of series: MIC (Table 4). The series is classed as cell-based. The settings on record: 10^8 cells/ml; unit assumed.
Description: as §1

The test system of a further series is E. Coli W3630. Kind of series: MIC (Table 4). The series is classed as cell-based. The settings on record: 10^8 cells/ml; unit assumed.
Description: as §1

In series [1] the test system is Klebs. pneumoniae ATCC 10031. Kind of series: MIC (Table 4). The series is classed as cell-based. As to conditions: 10^8 cells/ml; unit assumed.
Description: as §1

The next series has as its system Staph. aureus ATCC 6538p. Nature of the series: MIC (Table 4). In kind it is cell-based. As to conditions: 10^8 cells/ml; unit assumed.
Description: as §1

Series [2] concerns Salm enteritidis Gaertner. Nature of the series: MIC (Table 4). In kind it is cell-based. As to conditions: 10^8 cells/ml; unit assumed.
Description: as §1

A further series deals with E. Coli W3630 ps 3. Kind of series: MIC (Table 4). The settings on record: 10^8 cells/ml; unit assumed. The series is classed as cell-based.
Description: as §1

For the next series, the system named is Staph. aureus MS 27. Nature of the series: MIC (Table 4). In kind it is cell-based. As to conditions: 10^8 cells/ml; unit assumed.
Description: as §1

Series [3] is described as follows: Absorption test, oral, rats, solution in buffer pH 7 (Example 16). In kind it is in vivo, Male Wistar rats. The settings on record: blood, 50 mg/kg oral, rat, average of 6, read-out: Blood Concentration of the Compound. Here is the method: The absorption test of the compounds as obtained in Examples 1-11 were tested by the following method.
(§2) Male Wistar rats weighing 180-250 g were fed with only water overnight. The next day the rats were orally administered with 50 mg/kg of a test compound which was dissolved in a buffer solution having pH of 7. The concentration of the compound in blood of the tested animals (one group consisting of 6 animals) was measured 0.5, 1, 2 and 4 hours after the administration by Bioassay method by using Bacillus subtilis ATCC 6633 strain as an indicator bacteria. In the measurement, an ordinary culture medium was employed, and the preparation of the standard solution and other method were carried out in according to Japanese Antibiotical Pharmaceutical Standards. Further, the concentration of the compound in blood was also measured by high performance liquid chromatography. The blood concentration shown below was an average value of each animal group.

The nature of series [4]: Blood concentration, oral, rats, suspended in CMC aqueous solution (Example 17). As to conditions: blood, 50 mg/kg oral, rat, read-out: Blood Concentration of the Compound. The series is classed as in vivo, Male Wistar rats. As to the method:
as §2
The blood concentration of the compounds as obtained in Examples 12-15 and the compounds as obtained in the same manner as in Examples 3 and 12, respectively, was measured. The measurement was carried out in the same manner as Example 16 except that the test compound was suspended in a CMC aqueous solution instead of being dissolved in a buffer solution having pH of 7.

Values after ≈ are worked out from the molar mass of the structure shown.

Consider `CC1=C(C(=O)O)N2C(=O)[C@@H](NC(=O)[C@H](N)c3ccccc3)[C@H]2SC1` [Cephalexin, reference compound], for which the MIC Value was greater than 100 µg/mL with E. Coli NIHJ-JC2; 50 µg/mL (≈ 144 µM) against Staph. aureus 0003; greater than 100 µg/mL with E. Coli W3630; 25 µg/mL (≈ 72 µM) in series [1]; 3.1 µg/mL (≈ 8.92 µM) against Staph. aureus ATCC 6538p; greater than 100 µg/mL in [2]. The MIC Value against E. Coli W3630 ps 3 was greater than 100 µg/mL; with Staph. aureus MS 27, 50 µg/mL (≈ 144 µM).

Turning to `CC(=O)OCC1=C(C(=O)O)N2C(=O)[C@@H](NC(=O)CSc3nc(C[C@H](N)C(=O)O)c[nH]3)[C@H]2SC1` [Example 1, 7-β-[4-(2'-amino-2'-carboxy)ethylimidazol-2-yl-thioacetamido]-3-acetoxymethyl-3-cephem-4-carboxylic acid], the MIC Value with E. Coli NIHJ-JC2 stood at 50 µg/mL (≈ 100 µM); in the series with Staph. aureus 0003, 12.5 µg/mL (≈ 25 µM); in the series on E. Coli W3630 it was 100 µg/mL (≈ 200 µM); in series [1], 25 µg/mL (≈ 50 µM); against Staph. aureus ATCC 6538p it was 3.1 µg/mL (≈ 6.21 µM); in series [2], 100 µg/mL (≈ 200 µM). The MIC Value in the series with E. Coli W3630 ps 3 came out at 100 µg/mL (≈ 200 µM); in the series with Staph. aureus MS 27, 12.5 µg/mL (≈ 25 µM). The concentration at 0.5 h in series [3] (0.5 hr.) was determined as 3600 ng/mL. In addition, the concentration at 1 h in series [3] (1 hr.) was 1600 ng/mL. Moreover, in series [3] (2 hrs.), the concentration at 2 h was 800 ng/mL. Besides, the concentration at 4 h in series [3] (4 hrs.) worked out at 500 ng/mL.

Consider `Cn1nnnc1SCC1=C(C(=O)O)N2C(=O)[C@@H](NC(=O)CSc3nc(C[C@H](NC=O)C(=O)O)c[nH]3)[C@H]2SC1` [Example 15, 7-β-[4-(2'-formamido-2'-carboxy)ethylimidazol-2-yl-thioacetamido]-3-[(1-methyl-1H-tetrazol-5-yl)thiomethyl]-3-cephem-4-carboxylic acid], for which the concentration at 0.5 h in [4] (0.5 hr.) came to 3900 ng/mL. In series [4] (1 hr.), the concentration at 1 h was 2700 ng/mL. Also, the concentration at 4 h in [4] (4 hrs.) was 1700 ng/mL.

With `Cn1nnnc1SCC1=C(C(=O)O)N2C(=O)[C@@H](NC(=O)CSc3nc(C[C@H](N)C(=O)O)c[nH]3)[C@H]2SC1` [drawing 11], the MIC Value against E. Coli NIHJ-JC2 came out at 25 µg/mL (≈ 45 µM); against Staph. aureus 0003, 12.5 µg/mL (≈ 22.5 µM); against E. Coli W3630, 25 µg/mL (≈ 45 µM); in series [1], 12.5 µg/mL (≈ 22.5 µM); against Staph. aureus ATCC 6538p, 1.6 µg/mL (≈ 2.88 µM); in series [2], 12.5 µg/mL (≈ 22.5 µM). For the same compound, the MIC Value with E. Coli W3630 ps 3 was 25 µg/mL (≈ 45 µM); in the series with Staph. aureus MS 27 it was 12.5 µg/mL (≈ 22.5 µM).

For `Cc1nnc(SCC2=C(C(=O)O)N3C(=O)[C@@H](NC(=O)CSc4nc(C[C@H](N)C(=O)O)c[nH]4)[C@H]3SC2)s1` [drawing 13], the MIC Value against E. Coli NIHJ-JC2 was determined as 50 µg/mL (≈ 87.5 µM); in the series with Staph. aureus 0003 it was 25 µg/mL (≈ 43.7 µM); in the series with E. Coli W3630, 50 µg/mL (≈ 87.5 µM); in series [1] it was 25 µg/mL (≈ 43.7 µM); against Staph. aureus ATCC 6538p, 1.6 µg/mL (≈ 2.8 µM); in series [2] it was 50 µg/mL (≈ 87.5 µM). For the same compound, the MIC Value in the series with E. Coli W3630 ps 3 was found to be 50 µg/mL (≈ 87.5 µM); against Staph. aureus MS 27 it was 25 µg/mL (≈ 43.7 µM).

The record behind these values is US4477659A, “Cephalosporin compound” (Asahi Kasei Kogyo Kabushiki Kaisha, priority 1981, dated 1984).
